Test results reported in PubChem BioAssay AID1195 (EPA DSSTox, 2008).

System: human maximum recommended daily dose, FDA database
Experiment: DSSTox (FDAMDD) FDA Maximum (Recommended) Daily Dose Database
Conditions: hits give low values
How it was run: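 MRDD values come from clinical trials with daily oral dosing, usually for 3–12 months, for the average adult, in mg/day converted to mg/kg-bw/day assuming 60 kg. Antineoplastic mg/m2 doses are divided by 37. Activity score maps log10(1/MRDD mmol) onto 1–100.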

[1] = TherapeuticCategory: antihistaminic
[2] = TherapeuticCategory: antibacterial
[3] = TherapeuticCategory: narcotic analgesic
[4] = TherapeuticCategory: anticholinergic

C[C@@H](N)[C@@H](O)c1ccccc1
maximum recommended daily dose (mmol/kg-bw/day) (TherapeuticCategory: decongestant, anorexic): 0.0198

CN(C)CCOC(c1ccccc1)c1ccccc1
maximum recommended daily dose (mmol/kg-bw/day) [1]: 0.00326

NC(=O)c1cc[n+](CC2=C(C(=O)[O-])N3C(=O)[C@@H](NC(=O)C(c4ccccc4)S(=O)(=O)O)[C@H]3SC2)cc1 (stereo partly specified)
maximum recommended daily dose (mmol/kg-bw/day) [2]: 0.188

CC(=O)Oc1ccc(C(=C2CCCCC2)c2ccc(OC(C)=O)cc2)cc1
maximum recommended daily dose (mmol/kg-bw/day) (TherapeuticCategory: gonad stimulating): 0.0183

O=C1C[C@@H]2OCC=C3CN4CC[C@]56c7ccccc7N1[C@H]5[C@H]2[C@H]3C[C@H]46
maximum recommended daily dose (mmol/kg-bw/day) (TherapeuticCategory: rat poison): 0.00209

CN1CCc2cccc3c2[C@H]1Cc1ccc(O)c(O)c1-3
maximum recommended daily dose (mmol/kg-bw/day) (TherapeuticCategory: emetic): 0.00625

CN1CC[C@]23c4c5ccc(O)c4O[C@H]2[C@@H](O)C=C[C@H]3[C@H]1C5
maximum recommended daily dose (mmol/kg-bw/day) [3]: 0.00585

OC[C@@]1(O)OC[C@@H](O)[C@@H](O)[C@@H]1O
maximum recommended daily dose (mmol/kg-bw/day) (TherapeuticCategory: fluid and nutrient replenisher, ferric form as hematinic): 2.31

CO/N=C(\C(=O)N[C@@H]1C(=O)N2C(C(=O)O)=CCS[C@H]12)c1csc(N)n1
maximum recommended daily dose (mmol/kg-bw/day) [2]: 0.261

CN(C(=O)C(Cl)Cl)c1ccc(O)cc1
maximum recommended daily dose (mmol/kg-bw/day) (TherapeuticCategory: antiamebic): 0.107

C=CCOc1ccc(CC(=O)O)cc1Cl
maximum recommended daily dose (mmol/kg-bw/day) (TherapeuticCategory: analgesic, antipyretic, anti inflammatory): 0.00737

CCCCC(=O)OCC(=O)[C@@]1(O)[C@H](C)C[C@H]2[C@@H]3CCC4=CC(=O)C=C[C@]4(C)[C@@]3(F)[C@@H](O)C[C@@]21C
maximum recommended daily dose (mmol/kg-bw/day) (TherapeuticCategory: glucocorticoid, anti inflammatory): 0.000315

Nc1c(N=Nc2ccc(-c3ccc(N=Nc4cc(S(=O)(=O)O)c5ccccc5c4N)cc3)cc2)cc(S(=O)(=O)O)c2ccccc12
maximum recommended daily dose (mmol/kg-bw/day) (TherapeuticCategory: diagnostic aid): 0.00538

C[C@]12CCC(=O)C=C1CC[C@@H]1[C@@H]2[C@@H](O)C[C@]2(C=O)[C@@H](C(=O)CO)CC[C@@H]12
maximum recommended daily dose (mmol/kg-bw/day) (TherapeuticCategory: mineralcorticoid): 2.31e-05

CN(C)CCC(O)(c1ccccc1)c1ccccc1Cl (stereo unspecified)
maximum recommended daily dose (mmol/kg-bw/day) (TherapeuticCategory: antitussive): 0.00576

CC(C)(C)NC(=O)[C@@H]1CN(Cc2cccnc2)CCN1C[C@@H](O)C[C@@H](Cc1ccccc1)C(=O)N[C@H]1c2ccccc2C[C@H]1O
maximum recommended daily dose (mmol/kg-bw/day) (TherapeuticCategory: antiviral): 0.0264

C[N+]12CCC(CC1)C(OC(=O)C(O)(c1ccccc1)c1ccccc1)C2 (stereo unspecified)
maximum recommended daily dose (mmol/kg-bw/day) [4]: 0.00077

CCC(=O)C(CC(C)N(C)C)(c1ccccc1)c1ccccc1 (stereo unspecified)
maximum recommended daily dose (mmol/kg-bw/day) [3]: 0.00162

Cc1cc2nc3c(=O)[nH]c(=O)nc-3n(C[C@H](O)[C@H](O)[C@H](O)CO)c2cc1C
maximum recommended daily dose (mmol/kg-bw/day) (TherapeuticCategory: enzyme cofactor vitamin): 0.00133

CN1[C@@H]2CC[C@H]1CC(OC(c1ccccc1)c1ccccc1)C2 (stereo partly specified)
maximum recommended daily dose (mmol/kg-bw/day) [4]: 0.000325

CN1C(=O)OC(C)(C)C1=O
maximum recommended daily dose (mmol/kg-bw/day) (TherapeuticCategory: anticonvulsant): 0.279

NS(=O)(=O)c1cc2c(cc1Cl)NC(C(Cl)Cl)NS2(=O)=O (stereo unspecified)
maximum recommended daily dose (mmol/kg-bw/day) (TherapeuticCategory: diuretic, antihypertensive): 0.000175

CC(C)NCC(O)COc1ccc(CCOCC2CC2)cc1 (stereo unspecified)
maximum recommended daily dose (mmol/kg-bw/day) (TherapeuticCategory: antihypertensive, antiglaucomic): 0.00217

CC(C(=O)O)c1ccc(N2CC=CC2)c(Cl)c1 (stereo unspecified)
maximum recommended daily dose (mmol/kg-bw/day) (TherapeuticCategory: anti inflammatory): 0.0528

NC[C@@H]1O[C@H](O[C@H]2[C@@H](O)[C@H](O[C@@H]3[C@@H](O)[C@H](N)C[C@H](N)[C@H]3O[C@H]3O[C@H](CO)[C@@H](O)[C@H](O)[C@H]3N)O[C@@H]2CO)[C@H](N)[C@@H](O)[C@@H]1O
maximum recommended daily dose (mmol/kg-bw/day) (TherapeuticCategory: antibacterial, antiamebic): 0.0569

CN=C1CN(O)C(c2ccccc2)=c2cc(Cl)ccc2=N1
maximum recommended daily dose (mmol/kg-bw/day) (TherapeuticCategory: anxiolytic): 0.00557

CN(N=O)C(=O)N[C@@H]1[C@@H](O)[C@H](O)[C@@H](CO)O[C@@H]1O
maximum recommended daily dose (mmol/kg-bw/day) (TherapeuticCategory: antineoplastic): 0.407

CN[C@H]1[C@@H](O)[C@H](O[C@H]2O[C@H]([C@H](C)N)CC[C@H]2N)[C@@H](N)[C@H](O)[C@@H]1OC
maximum recommended daily dose (mmol/kg-bw/day) [2]: 0.0191

CCN(CC)CCNC(=O)c1cc(S(C)(=O)=O)ccc1OC
maximum recommended daily dose (mmol/kg-bw/day) (TherapeuticCategory: antidyskinetic): 0.0203

CC(C)(C)c1ccc(C(O)CCCN2CCC(C(O)(c3ccccc3)c3ccccc3)CC2)cc1 (stereo unspecified)
maximum recommended daily dose (mmol/kg-bw/day) [1]: 0.00424

CNC(=O)Oc1ccc2c(c1)[C@]1(C)CCN(C)[C@@H]1N2C
maximum recommended daily dose (mmol/kg-bw/day) (TherapeuticCategory: cholinergic, miotic): 6.07e-05

CCN1/C(=C/C=C/C=C/c2sc3ccccc3[n+]2CC)Sc2ccccc21
maximum recommended daily dose (mmol/kg-bw/day) (TherapeuticCategory: anthelmintic): 0.00642

C#CC(C)(O)CC (stereo unspecified)
maximum recommended daily dose (mmol/kg-bw/day) (TherapeuticCategory: hypnotic, sedative): 0.17

OC[C@H]1OC(O)[C@H](O)[C@@H](O)[C@@H]1O (stereo partly specified)
maximum recommended daily dose (mmol/kg-bw/day) (TherapeuticCategory: fluid and nutrient replenisher): 0.555

CC(=O)N[C@H]1[C@H]([C@H](O)[C@H](O)CO)OC(C(=O)O)=C[C@@H]1N=C(N)N
maximum recommended daily dose (mmol/kg-bw/day) (TherapeuticCategory: neuraminidase inhibitors): 0.001

CC(=O)[C@@]1(O)CC[C@H]2[C@@H]3C=C(Cl)C4=CC(=O)CC[C@]4(C)[C@H]3CC[C@@]21C
maximum recommended daily dose (mmol/kg-bw/day) (TherapeuticCategory: progestogen, antineoplastic): 9.18e-05
